Laboratory results: patent US4546176A, “7-Carboxymethoxyphenylacetamido-3-cephem derivatives and antibacterial preparations containing the same” (Eisai Co., Ltd., priority 1982, dated 1985)
In brackets after ≈: the same amount, converted by molar mass.

What was measured:
Pseud. aeruginosa EP-01 = assay: Antibacterial activities (MIC), Pseud. aeruginosa EP-01; assay type: cell-based; settings: Pseudomonas aeruginosa, EP01
Excerpt: (§1) (1) Antibacterial activities (MIC):

Proteus morganii EP-14 = assay: Antibacterial activities (MIC), Proteus morganii EP-14; assay type: cell-based; settings: Morganella morganii, EP14
Excerpt: as §1

Escher. coli NIHJ = assay: Antibacterial activities (MIC), Escher. coli NIHJ; assay type: cell-based; settings: Escherichia coli
Excerpt: as §1

[1] = Acute toxicity LD50 (mouse, oral); settings: in vivo
Excerpt: The acute toxicity values [LD50 (mouse, oral)] of the following compounds were each 4 g/kg or greater;

Kleb. pneumoniae EK-6 = assay: Antibacterial activities (MIC), Kleb. pneumoniae EK-6; assay type: cell-based; settings: Klebsiella pneumoniae, EK6
Excerpt: as §1

Staph. aureus 209-P = assay: Antibacterial activities (MIC), Staph. aureus 209-P; assay type: cell-based; settings: Staphylococcus aureus
Excerpt: as §1

Ser. marcescens ES-75 = assay: Antibacterial activities (MIC), Ser. marcescens ES-75; assay type: cell-based; settings: Serratia marcescens, ES75
Excerpt: as §1

[2] = Urinary excretion rate in mice; assay type: in vivo, ICR male mice; settings: mouse, sc, 20 mg/kg subcutaneous, urine up to 6 hours, bioassay
Experimental: ICR male mice (body weight: 20-30 g) were used. Each compound was dissolved in an M/15 phosphate buffer (pH 7.0) and administered in an amount of 20 mg/kg by the subcutaneous route. Urine was collected up to 6 hours after the administration. The concentration of the compound was determined by the bioassey technique (the agar-well method) using Pseudomonas aeruginosa as a test microorganism. On the basis of the thus-determined concentration, its excreted amount was obtained. The urinary excretion rate was then calculated from the excreted amount based on the amount administered.

Solubility in water = assay type: physicochemical; settings: in distilled water at 25° C.
Proteus vulgaris E-18 = assay: Antibacterial activities (MIC), Proteus vulgaris E-18 (lactamase producing); assay type: cell-based; settings: E18; Proteus vulgaris E-18, lactamase producing bacteria
Excerpt: as §1
*Lactamase producing bacteria.

CCn1cc(C(=O)NC(C(=O)NC2C(=O)N3C(C(=O)O)=C(CSc4nnnn4C)CSC23)c2ccc(OCC(=O)O)cc2)c(=O)c2cc(OC(C)=O)c(OC(C)=O)cc21 (stereo not shown) [Example 11]
MIC (Pseud. aeruginosa EP-01): 0.1 µg/mL (≈ 0.118 µM)
MIC (Proteus morganii EP-14): 0.4 µg/mL (≈ 0.47 µM)
MIC (Escher. coli NIHJ): 0.2 µg/mL (≈ 0.235 µM)
LD50 [1]: ≥ 4000 mg/kg
MIC (Kleb. pneumoniae EK-6): ≤ 0.05 µg/mL
MIC (Staph. aureus 209-P): 12.5 µg/mL (≈ 14.7 µM)
MIC (Ser. marcescens ES-75): ≤ 0.05 µg/mL

Cc1oc2cc(O)c(O)cc2c(=O)c1C(=O)N[C@@H](C(=O)N[C@@H]1C(=O)N2C(C(=O)O)=C(CSc3nnnn3CC(=O)O)CS[C@H]12)c1ccc(OCC(=O)O)cc1 [Example 15, Trisodium 7β-[D-2-(4-carboxymethoxyphenyl)-2-(6,7-dihydroxy-2-methyl-4-oxo-4H-1-benzopyran-3-carboxamido)acetamido]-3-(1-carboxymethyl-5-tetrazolyl)thiomethyl-3-cephem-4-carboxylate]
MIC (Pseud. aeruginosa EP-01): 0.2 µg/mL
MIC (Proteus morganii EP-14): 3.13 µg/mL
MIC (Escher. coli NIHJ): 0.2 µg/mL
LD50 [1]: ≥ 4000 mg/kg
MIC (Kleb. pneumoniae EK-6): ≤ 0.05 µg/mL
dose excreted at 6 h [2]: 32%
MIC (Staph. aureus 209-P): 100 µg/mL
MIC (Ser. marcescens ES-75): 0.1 µg/mL
solubility (Solubility in water): ≥ 300 mg/mL

CO[C@@]1(NC(=O)[C@H](NC(=O)c2c(C)oc3cc(OC(C)=O)c(OC(C)=O)cc3c2=O)c2ccc(OCC(=O)O)cc2)C(=O)N2C(C(=O)O)=C(CSc3nnnn3CC(=O)O)CS[C@@H]21 [Example 21]
MIC (Pseud. aeruginosa EP-01): 0.2 µg/mL (≈ 0.219 µM)
MIC (Proteus morganii EP-14): 3.13 µg/mL (≈ 3.43 µM)
MIC (Escher. coli NIHJ): 0.4 µg/mL (≈ 0.439 µM)
MIC (Proteus vulgaris E-18): 0.4 µg/mL (≈ 0.439 µM)
MIC (Kleb. pneumoniae EK-6): ≤ 0.05 µg/mL
MIC (Staph. aureus 209-P): 100 µg/mL (≈ 110 µM)
MIC (Ser. marcescens ES-75): 0.1 µg/mL (≈ 0.11 µM)

CO[C@@]1(NC(=O)[C@H](NC(=O)c2c(C)oc3c(OC(C)=O)c(OC(C)=O)ccc3c2=O)c2ccc(OCC(=O)O)cc2)C(=O)N2C(C(=O)O)=C(CSc3nnnn3CC(=O)O)CS[C@@H]21 [Example 24, 7β-[D-2-(4-Carboxymethoxyphenyl)-2-(7,8-diacetoxy-2-methyl-4-oxo-4H-1-benzopyran-3-carboxamido)-acetamido]-7α-methoxy-3-(1-carboxymethyl-4-tetrazolyl)thiomethyl-3-cephem-4-carboxylic acid]
MIC (Pseud. aeruginosa EP-01): 0.8 µg/mL (≈ 0.877 µM)
MIC (Proteus morganii EP-14): 12.5 µg/mL (≈ 13.7 µM)
MIC (Escher. coli NIHJ): 0.8 µg/mL (≈ 0.877 µM)
MIC (Proteus vulgaris E-18): 3.13 µg/mL (≈ 3.43 µM)
MIC (Kleb. pneumoniae EK-6): ≤ 0.05 µg/mL
MIC (Staph. aureus 209-P): 100 µg/mL (≈ 110 µM)
MIC (Ser. marcescens ES-75): 0.8 µg/mL (≈ 0.877 µM)

CO[C@@]1(NC(=O)[C@H](NC(=O)c2coc3cc(O)c(O)cc3c2=O)c2ccc(OCC(=O)O)cc2)C(=O)N2C(C(=O)O)=C(COC(C)=O)CS[C@@H]21 [Example 31, 7β-[D-2-(4-Carboxymethoxyphenyl)-2-(6,7-dihydroxy-4-oxo-4H-1-benzopyran-3-carboxamido)acetamido]-7α-methoxy-3-acetoxymethyl-3-cephem-4-carboxylic acid]
MIC (Pseud. aeruginosa EP-01): 0.4 µg/mL (≈ 0.561 µM)
MIC (Proteus morganii EP-14): 6.25 µg/mL (≈ 8.76 µM)
MIC (Escher. coli NIHJ): 0.8 µg/mL (≈ 1.12 µM)
MIC (Proteus vulgaris E-18): 1.56 µg/mL (≈ 2.19 µM)
MIC (Kleb. pneumoniae EK-6): ≤ 0.05 µg/mL
MIC (Staph. aureus 209-P): 50 µg/mL (≈ 70.1 µM)
MIC (Ser. marcescens ES-75): 0.4 µg/mL (≈ 0.561 µM)

Cc1oc2cc(O)c(O)cc2c(=O)c1C(=O)N[C@@H](C(=O)N[C@@H]1C(=O)N2C(C(=O)[O-])=C(C[n+]3ccc(CCS(=O)(=O)O)cc3)CS[C@H]12)c1ccc(OCC(=O)O)cc1 [Example 42, Disodium 7β-[D-2-(4-carboxymethoxyphenyl)-2-(6,7-dihydroxy-2-methyl-4-oxo-4H-1-benzopyran-3-carboxamido)acetamido]-3-[4-(2-sulfoethyl)-pyridinium]methyl-3-cephem-4-carboxylate]
MIC (Pseud. aeruginosa EP-01): 0.2 µg/mL
MIC (Proteus morganii EP-14): 3.13 µg/mL
MIC (Escher. coli NIHJ): 0.2 µg/mL
LD50 [1]: ≥ 4000 mg/kg
MIC (Kleb. pneumoniae EK-6): ≤ 0.05 µg/mL
dose excreted at 6 h [2]: 46%
MIC (Staph. aureus 209-P): 100 µg/mL
MIC (Ser. marcescens ES-75): 0.2 µg/mL
solubility (Solubility in water): ≥ 300 mg/mL

Cc1oc2cc(O)c(O)cc2c(=O)c1C(=O)N[C@@H](C(=O)N[C@@H]1C(=O)N2C(C(=O)[O-])=C(C[n+]3cccc(CC(=O)O)c3)CS[C@H]12)c1ccc(OCC(=O)O)cc1 [Example 43, Disodium 7β-[D-2-(4-carboxymethoxyphenyl)-2-(6,7-dihydroxy-2-methyl-4-oxo-4H-1-benzopyran-3-carboxamido)acetamido]-3-(3-carboxymethylpyridinium)-methyl-3-cephem-4-carboxylate]
MIC (Pseud. aeruginosa EP-01): 0.1 µg/mL
MIC (Proteus morganii EP-14): 12.5 µg/mL
MIC (Escher. coli NIHJ): 0.8 µg/mL
LD50 [1]: ≥ 4000 mg/kg
MIC (Kleb. pneumoniae EK-6): ≤ 0.05 µg/mL
dose excreted at 6 h [2]: 25%
MIC (Staph. aureus 209-P): 100 µg/mL
MIC (Ser. marcescens ES-75): 0.2 µg/mL
solubility (Solubility in water): ≥ 300 mg/mL

NC(=O)c1cc[n+](CC2=C(C(=O)[O-])N3C(=O)[C@@H](NC(=O)[C@H](NC(=O)c4coc5cc(O)c(O)cc5c4=O)c4ccc(OCC(=O)O)cc4)[C@H]3SC2)cc1 [Example 45, Sodium 7β-[D-2-(4-carboxymethoxyphenyl)-2-(6,7-dihydroxy-4-oxo-4H-1-benzopyran-3-carboxamido)-acetamido]-3-(4-carbamoylpyridinium)methyl-3-cephem-4-carboxylate]
MIC (Pseud. aeruginosa EP-01): 0.1 µg/mL
MIC (Proteus morganii EP-14): 6.25 µg/mL
MIC (Escher. coli NIHJ): 0.8 µg/mL
MIC (Kleb. pneumoniae EK-6): ≤ 0.05 µg/mL
dose excreted at 6 h [2]: 38%
MIC (Staph. aureus 209-P): 25 µg/mL
MIC (Ser. marcescens ES-75): 0.8 µg/mL
solubility (Solubility in water): ≥ 300 mg/mL

O=C(O)COc1ccc([C@@H](NC(=O)c2coc3cc(O)c(O)cc3c2=O)C(=O)N[C@@H]2C(=O)N3C(C(=O)[O-])=C(C[n+]4ccc(CCS(=O)(=O)O)cc4)CS[C@H]23)cc1 [Example 46, Disodium 7β-[D-2-(4-carboxymethoxyphenyl)-2-(6,7-dihydroxy-4-oxo-4H-1-benzopyran-3-carboxamido)-acetamido]-3-[4-(2-sulfoethyl)pyridinium]methyl-3-cephem-4-carboxylate]
MIC (Pseud. aeruginosa EP-01): 0.4 µg/mL
MIC (Proteus morganii EP-14): 25 µg/mL
MIC (Escher. coli NIHJ): 0.4 µg/mL
MIC (Kleb. pneumoniae EK-6): ≤ 0.05 µg/mL
dose excreted at 6 h [2]: 62%
MIC (Staph. aureus 209-P): 50 µg/mL
MIC (Ser. marcescens ES-75): 0.8 µg/mL
solubility (Solubility in water): ≥ 300 mg/mL

CCn1cc(C(=O)N[C@@H](C(=O)N[C@@H]2C(=O)N3C(C(=O)[O-])=C(C[n+]4ccc(C(N)=O)cc4)CS[C@H]23)c2ccc(OCC(=O)O)cc2)c(=O)c2cc(O)c(O)cc21 [Example 53, Sodium 7β-[D-2-(4-carboxymethoxyphenyl)-2-(6,7-dihydroxy-1-ethyl-1,4-dihydro-4-oxoquinoline-3-carboxamido)acetamido]-3-(4-carbamoylpyridinium)-methyl-3-cephem-4-carboxylate]
MIC (Pseud. aeruginosa EP-01): 0.2 µg/mL
MIC (Proteus morganii EP-14): 6.25 µg/mL
MIC (Escher. coli NIHJ): 0.4 µg/mL
LD50 [1]: ≥ 4000 mg/kg
MIC (Kleb. pneumoniae EK-6): ≤ 0.05 µg/mL
dose excreted at 6 h [2]: 13%
MIC (Staph. aureus 209-P): 50 µg/mL
MIC (Ser. marcescens ES-75): 0.8 µg/mL
solubility (Solubility in water): ≥ 300 mg/mL

Cc1oc2cc(O)c(O)cc2c(=O)c1C(=O)N[C@@H](C(=O)N[C@@H]1C(=O)N2C(C(=O)[O-])=C(C[n+]3ccc(C(=O)O)cc3)CS[C@H]12)c1ccc(OCC(=O)O)cc1 [Example 55, Disodium 7β-[D-2-(4-carboxymethoxyphenyl)-2-(6,7-dihydroxy-2-methyl-4-oxo-4H-1-benzopyran-3-carboxamido)acetamido]-3-(4-carboxypyridinium)-methyl-3-cephem-4-carboxylate]
MIC (Pseud. aeruginosa EP-01): ≤ 0.05 µg/mL
MIC (Proteus morganii EP-14): 6.25 µg/mL
MIC (Escher. coli NIHJ): 0.4 µg/mL
LD50 [1]: ≥ 4000 mg/kg
MIC (Kleb. pneumoniae EK-6): ≤ 0.05 µg/mL
MIC (Staph. aureus 209-P): 100 µg/mL
MIC (Ser. marcescens ES-75): 0.4 µg/mL

Cc1oc2cc(O)c(O)cc2c(=O)c1C(=O)N[C@@H](C(=O)N[C@@H]1C(=O)N2C(C(=O)[O-])=C(C[n+]3ccc(C(N)=O)cc3)CS[C@H]12)c1ccc(OCC(=O)O)cc1 [Example 57, 7β-[D-2-(4-Carboxymethoxyphenyl)-2-(6,7-dihydroxy-2-methyl-4-oxo-4H-1-benzopyran-3-carboxamido)acetamido]-3-(4-carbamoylpyridinium)methyl-3-cephem-4-carboxylate]
LD50 [1]: ≥ 4000 mg/kg
